Reference: publication PMC3130629 (Free radical biology & medicine, 2011)

Experiments:
[1] = cited from earlier work
[2] = system: xanthine oxidase (XO); assay: O2•- formation from reaction of inhibitor with purified XO; format: biochemical; conditions: XO 10 mU/ml; allopurinol 50 μM, febuxostat 100 nM; cytochrome c reduction
[3] = molecular target: XO; conditions: read-out: Ki for XO; pH 8.5; cited from earlier work
[4] = system: XO bound to BAEC GAGs (endothelial cell-bound XO); assay: Inhibition of endothelial cell-bound XO, extracellular O2•- by EPR with PPH; format: cell-based, bovine; conditions: xanthine 100 μM, 37°C
[5] = system: XO bound to BAEC GAGs (endothelial cell-bound XO); assay: Inhibition of endothelial cell-bound XO, uric acid formation; format: cell-based, bovine; conditions: for Inhibition of endothelial cell GAG-bound XO (uric acid formation): even at concentrations above those tolerated clinically (e.g. 200 μM)
[6] = molecular target: xanthine oxidase (XO), free in solution (Bos taurus, UniProt P80457); assay: Inhibition of XO free in solution, uric acid formation; format: biochemical; conditions: soluble and HS6B-XO, 0.96 and […] vs ref 16
[7] = molecular target: HS6B-XO (GAG-immobilized xanthine oxidase) (Bos taurus, UniProt P80457)
[8] = molecular target: soluble XO; conditions: read-out: Ki, soluble XO; cited from earlier work
[9] = molecular target: GAG-bound XOR; conditions: read-out: Ki, GAG-bound XOR; cited from earlier work

HS6B-XO (GAG-immobilized xanthine oxidase), sequence (P80457 whole entry): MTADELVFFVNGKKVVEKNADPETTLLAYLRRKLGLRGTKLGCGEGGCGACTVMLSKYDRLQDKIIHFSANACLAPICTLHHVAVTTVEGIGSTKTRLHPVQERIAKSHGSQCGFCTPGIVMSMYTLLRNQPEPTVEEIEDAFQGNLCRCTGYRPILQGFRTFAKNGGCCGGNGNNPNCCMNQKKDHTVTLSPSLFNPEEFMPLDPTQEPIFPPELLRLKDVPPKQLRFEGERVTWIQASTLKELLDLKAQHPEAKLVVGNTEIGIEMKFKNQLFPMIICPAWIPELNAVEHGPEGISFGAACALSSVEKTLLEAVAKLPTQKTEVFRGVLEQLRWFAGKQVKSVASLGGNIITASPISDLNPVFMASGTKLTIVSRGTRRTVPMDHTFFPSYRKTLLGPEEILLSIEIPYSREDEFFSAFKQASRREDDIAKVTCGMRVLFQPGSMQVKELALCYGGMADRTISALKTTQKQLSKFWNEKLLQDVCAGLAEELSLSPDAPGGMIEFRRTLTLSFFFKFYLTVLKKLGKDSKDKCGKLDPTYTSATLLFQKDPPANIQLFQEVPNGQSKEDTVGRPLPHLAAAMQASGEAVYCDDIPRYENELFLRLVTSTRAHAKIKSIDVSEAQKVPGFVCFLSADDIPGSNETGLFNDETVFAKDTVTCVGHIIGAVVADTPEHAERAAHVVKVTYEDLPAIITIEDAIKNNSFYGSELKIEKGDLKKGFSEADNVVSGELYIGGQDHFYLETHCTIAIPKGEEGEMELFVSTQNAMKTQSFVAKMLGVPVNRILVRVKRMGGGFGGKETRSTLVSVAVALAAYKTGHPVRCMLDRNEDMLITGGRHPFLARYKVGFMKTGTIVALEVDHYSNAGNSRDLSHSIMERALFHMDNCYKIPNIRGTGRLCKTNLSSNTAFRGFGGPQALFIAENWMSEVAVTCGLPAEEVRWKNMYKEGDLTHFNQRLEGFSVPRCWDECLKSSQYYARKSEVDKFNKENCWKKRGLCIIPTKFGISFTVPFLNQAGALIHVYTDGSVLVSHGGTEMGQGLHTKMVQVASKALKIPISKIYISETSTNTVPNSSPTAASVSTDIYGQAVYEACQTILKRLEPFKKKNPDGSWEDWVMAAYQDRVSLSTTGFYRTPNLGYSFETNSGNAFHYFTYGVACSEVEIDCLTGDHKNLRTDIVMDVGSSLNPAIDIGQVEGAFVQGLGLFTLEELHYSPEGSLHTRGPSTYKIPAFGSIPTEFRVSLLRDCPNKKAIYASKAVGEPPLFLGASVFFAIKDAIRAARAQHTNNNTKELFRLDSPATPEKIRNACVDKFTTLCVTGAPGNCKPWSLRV
xanthine oxidase (XO), free in solution, sequence (P80457 whole entry): as above

Compound | Concentrations seen clinically [1] | O2•- formation on exposure of purified XO to the inhibitor [2] | Ki [3] | Reduction of cell-bound O2•- radical formation (EPR, PP• radical) ([4]; 200 μM) | Inhibition of endothelial cell GAG-bound XO (uric acid formation) [5] | Cmax ([1]; reported) | Ki (pH 7.4) higher than previously reported Ki (pH 8.5) [6] | Concentration giving complete inhibition of uric acid and O2•- production from HS6B-XO [7] | Reduction of cell-bound O2•- production (EPR, PP• radical) ([4]; 50 nM) | Inhibition of uric acid formation from endothelial cell-bound XO ([5]; 25 nM febuxostat, xanthine 100 μM, 1 h) | Ki [8] | Ki [9]
Oc1ncnc2[nH]ncc12 [allopurinol] | 20 to 90 µM | significant O2 ^•- formation | 700 nM | 80% | no more than 80% |  |  |  |  |  |  | 
Cc1nc(-c2ccc(OCC(C)C)c(C#N)c2)sc1C(=O)O [febuxostat] |  | no detectable O2 ^•- | 0.12 nM |  |  | 15 µM | ~ 8 fold | ≤ 50 nM | 100% | completely inhibited |  | 
O=c1[nH]c(=O)c2c[nH]nc2[nH]1 [oxypurinol] | 20 to 90 µM |  |  |  | no more than 80% |  |  |  |  |  | 230 nM | 405 nM
